Results as given in patent publication US20230146455A1, “TREATMENT OF INFLAMMATORY DISEASES WITH PEPTIDES AND PHARMACEUTICAL COMPOSITIONS” (Yuyu Pharma, Inc., priority 2020, published 2023).
Where “and” joins values, the source holds several entries; their conditions need not be identical. Equal entries are not always repeated. Where a SMILES comes first, the peptide text is derived from it. [ ]: non-standard residue; d: D form. Hyp = O=C(O)[C@@H]1C[C@@H](O)CN1

Columns and labels:
IL-17A = test: Example 9 Luminex, LPS hPBMCs: IL-17A; assay type: cell-based, human
Description: (§1) Treatment Human PBMCs were pretreated with YY-101, YDE-011 and YDE-043 or reference compound; Xiidra® at various concentration (ranging from 1 nM to 100 uM) for 2 h before stimulation. An equal volume of 0.5% DMSO was used as a vehicle control. Then, the cells were treated with LPS at 5 ug/ml. The supernatants from treated cells were harvested at 24 h and placed in a 96 well for Luminex cytokine & chemokine profiling using a Luminex 200 multiplex assay (Luminex; R&D system, USA).
(§2) The main study arm with triplicate wells per group in a 24-well plate: • 1. Blank • 2. PBMC: 0.5% DMSO • 3. PBMC+LPS (5 ug/ml) • 4. PBMC+YY-101 100 uM • 5. PBMC+YY-101 10 uM • 6. PBMC+YY-101 1 uM • 7. PBMC+YY-101 0.1 uM • 8. PBMC+YY-101 0.01 uM • 9. PBMC+LPS (5 ug/ml)+Xiidra®100 uM • 10. PBMC+LPS (5 ug/ml)+Xiidra® 10 uM • 11. PBMC+LPS (5 ug/ml)+Xiidra® 1 uM • 12. PBMC+LPS (5 ug/ml)+Xiidra®0.1 uM • 13. PBMC+LPS (5 ug/ml)+Xiidra®0.01 uM • 14. PBMC+LPS (5 ug/ml)+Xiidra®0.001 uM • 15. PBMC+LPS (5 ug/ml)+YY-101 100 uM • 16. PBMC+LPS (5 ug/ml)+YY-101 10 uM • 17. PBMC+LPS (5 ug/ml)+YY-101 1 uM • 18. PBMC+LPS (5 ug/ml)+YY-101 0.1 uM • 19. PBMC+LPS (5 ug/ml)+YY-101 0.01 uM • 20. PBMC+LPS (5 ug/ml)+YY-101 0.001 uM • 21. PBMC+LPS (5 ug/ml)+YDE-011 100 uM • 22. PBMC+LPS (5 ug/ml)+YDE-011 10 uM • 23. PBMC+LPS (5 ug/ml)+YDE-011 1 uM • 24. PBMC+LPS (5 ug/ml)+YDE-011 0.1 uM • 25. PBMC+LPS (5 ug/ml)+YDE-011 0.01 uM • 26. PBMC+LPS (5 ug/ml)+YDE-011 0.001 uM • 27. PBMC+LPS (5 ug/ml)+YDE-043 100 uM • 28. PBMC+LPS (5 ug/ml)+YDE-043 10 uM • 29. PBMC+LPS (5 ug/ml)+YDE-043 1 uM • 30. PBMC+LPS (5 ug/ml)+YDE-043 0.1 uM • 31. PBMC+LPS (5 ug/ml)+YDE-043 0.01 uM • 32. PBMC+LPS (5 ug/ml)+YDE-043 0.001 uM
(§3) Multiplex assay was used to measure 30 cytokines and chemokines. The 1:2, 1:10 and 1:200 diluted cell supernatant and serial dilution of the standard were dispensed into a 96 well plate at 50 ul/well. Then, the pre-mixed cocktail of antibody-coated magnetic beads was dispensed at 50 ul/well and incubated at room temperature for 2 h in a horizontal orbital microplate shaker at 800±500 rpm. The beads were washed using a magnetic device to prevent loss. The biotin-antibody was dispensed in 50 ul of each well and incubated at room temperature for 1 h in a shaker at 800±500 rpm. After washing, streptavidin-PE was added at 50 ul/well and incubated at room temperature for 30 min in a shaker under the same conditions. Finally, after washing, wash buffer (100 ul/well) was added to the plate and incubated in a shaker for 2 min. The Luminex™ 200 setting were set according to the manufacturer's protocol. The data was calculated with a standard five-parameter logistic nonlinear regression analysis of the data (xPonent software 4.2, USA). The levels of cytokine/chemokine are normalized to the live cell counts (1×10^5 cells/mL) and presented as concentrations per mL (pg/mL or ng/mL).

TNF-alpha = test: Example 9 Luminex, LPS hPBMCs: TNF-alpha; assay type: cell-based, human
Description: as §1, §2, §3

[1] = PBMC + LPS(5 ug/ml) + test article 0.001 uM, Mean
[2] = PBMC + LPS(5 ug/ml) + test article 0.001 uM, single replicates (1st, 2nd, 3rd)
[3] = PBMC + LPS(5 ug/ml) + test article 0.01 uM, Mean
[4] = PBMC + LPS(5 ug/ml) + test article 0.01 uM, single replicates (1st, 2nd, 3rd)
[5] = PBMC + LPS(5 ug/ml) + test article 0.1 uM, Mean
[6] = PBMC + LPS(5 ug/ml) + test article 0.1 uM, single replicates (1st, 2nd, 3rd)
[7] = PBMC + LPS(5 ug/ml) + test article 1 uM, Mean
[8] = PBMC + LPS(5 ug/ml) + test article 1 uM, single replicates (1st, 2nd, 3rd)
[9] = PBMC + LPS(5 ug/ml) + test article 10 uM, Mean
[10] = PBMC + LPS(5 ug/ml) + test article 10 uM, single replicates (1st, 2nd, 3rd)
[11] = PBMC + LPS(5 ug/ml) + test article 100 uM, Mean
[12] = PBMC + LPS(5 ug/ml) + test article 100 uM, single replicates (1st, 2nd, 3rd)
[13] = PBMC + LPS(5 ug/ml) + test article 0.001 uM, individual replicates (1st, 2nd, 3rd)
[14] = PBMC + LPS(5 ug/ml) + test article 0.01 uM, individual replicates (1st, 2nd, 3rd)
[15] = PBMC + LPS(5 ug/ml) + test article 0.1 uM, individual replicates (1st, 2nd, 3rd)
[16] = PBMC + LPS(5 ug/ml) + test article 1 uM, individual replicates (1st, 2nd, 3rd)
[17] = PBMC + LPS(5 ug/ml) + test article 10 uM, individual replicates (1st, 2nd, 3rd)
[18] = PBMC + LPS(5 ug/ml) + test article 100 uM, individual replicates (1st, 2nd, 3rd)

In the case of `CC(C)C[C@H](NC(=O)CNC(=O)[C@H](CC(C)C)NC(=O)[C@H](CCC(N)=O)NC(=O)CNC(=O)[C@@H]1C[C@@H](O)CN1)C(=O)N[C@@H](C)C(=O)NCC(=O)N1CCC[C@H]1C(=O)N[C@@H](CCCCN)C(=O)O` [YDE-011] (H-[Hyp]GQLGLAGPK-OH), the “Concentration, IL-17A” value (IL-17A; [1]) is reported as 3.3 pg/mL, the “MFI, Bead name: IL-17A” value (IL-17A; [1]) is reported as 1.8 and the “conc/live cell, IL-17A” value (IL-17A; [1]) is reported as 0.6 pg/10^5. The “Concentration, IL-17A” value (IL-17A; [2]) was 4.3 pg/ml and 2.7 pg/ml (2×), the “MFI, Bead name: IL-17A” value (IL-17A; [2]) was 2.5 and 1.5 (2×) and the “conc/live cell, IL-17A” value (IL-17A; [2]) was 1.0 pg/10^5 and 0.5 pg/10^5 (2×). For the same compound, the “Concentration, IL-17A” value (IL-17A; [3]) was 2.1 pg/mL, the “MFI, Bead name: IL-17A” value (IL-17A; [3]) was 1.2 and the “conc/live cell, IL-17A” value (IL-17A; [3]) was 0.4 pg/10^5. For the same compound, the “Concentration, IL-17A” value (IL-17A; [4]) was 1.0 pg/ml (2×) and 4.3 pg/ml, the “MFI, Bead name: IL-17A” value (IL-17A; [4]) was 0.5 (2×) and 2.5 and the “conc/live cell, IL-17A” value (IL-17A; [4]) was 0.2 pg/10^5 (2×) and 0.9 pg/10^5. For the same compound, the “Concentration, IL-17A” value (IL-17A; [5]) was 1.6 pg/mL, the “MFI, Bead name: IL-17A” value (IL-17A; [5]) was 0.8 and the “conc/live cell, IL-17A” value (IL-17A; [5]) was 0.3 pg/10^5. The “Concentration, IL-17A” value (IL-17A; [6]) was 2.7 pg/ml and 1.0 pg/ml (2×), the “MFI, Bead name: IL-17A” value (IL-17A; [6]) was 1.5 and 0.5 (2×) and the “conc/live cell, IL-17A” value (IL-17A; [6]) was 0.4 pg/10^5 and 0.2 pg/10^5 (2×). The “Concentration, IL-17A” value (IL-17A; [7]) was 3.8 pg/mL, the “MFI, Bead name: IL-17A” value (IL-17A; [7]) was 2.2 and the “conc/live cell, IL-17A” value (IL-17A; [7]) was 0.8 pg/10^5. For the same compound, the “Concentration, IL-17A” value (IL-17A; [8]) was 4.3 pg/ml (2×) and 2.7 pg/ml, the “MFI, Bead name: IL-17A” value (IL-17A; [8]) was 2.5 (2×) and 1.5 and the “conc/live cell, IL-17A” value (IL-17A; [8]) was 0.8 pg/10^5 and 0.9 pg/10^5 and 0.6 pg/10^5. For the same compound, the “Concentration, IL-17A” value (IL-17A; [9]) was 2.7 pg/mL, the “MFI, Bead name: IL-17A” value (IL-17A; [9]) was 0.8 and the “conc/live cell, IL-17A” value (IL-17A; [9]) was 0.3 pg/10^5. For the same compound, the “Concentration, IL-17A” value (IL-17A; [10]) was 2.7 pg/mL, the “MFI, Bead name: IL-17A” value (IL-17A; [10]) was 1.5 (2×) and −0.5 and the “conc/live cell, IL-17A” value (IL-17A; [10]) was 0.5 pg/10^5 (2×) and 0.0 pg/10^5. For the same compound, the “Concentration, IL-17A” value (IL-17A; [11]) was 1.0 pg/mL, the “MFI, Bead name: IL-17A” value (IL-17A; [11]) was 0.2 and the “conc/live cell, IL-17A” value (IL-17A; [11]) was 0.1 pg/10^5. The “Concentration, IL-17A” value (IL-17A; [12]) was 1.0 pg/mL, the “MFI, Bead name: IL-17A” value (IL-17A; [12]) was 0.5 (2×) and −0.5 and the “conc/live cell, IL-17A” value (IL-17A; [12]) was 0.2 pg/10^5 (2×) and 0.0 pg/10^5. For the same compound, the “TNF-alpha Concentration” value (TNF-alpha; [1]) was 1257.3 pg/mL, the TNF-alpha conc/live cell (TNF-alpha; [1]) was 237.4 pg/10^5 and the “TNF-alpha Concentration” value (TNF-alpha; [13]) was 1245.3 pg/mL and 1240.9 pg/mL and 1285.6 pg/mL. For the same compound, the TNF-alpha conc/live cell (TNF-alpha; [13]) was 276.7 pg/10^5 and 213.9 pg/10^5 and 221.7 pg/10^5, the “TNF-alpha Concentration” value (TNF-alpha; [3]) was 1293.5 pg/mL and the TNF-alpha conc/live cell (TNF-alpha; [3]) was 222.4 pg/10^5. The “TNF-alpha Concentration” value (TNF-alpha; [14]) was 1285.6 pg/ml (2×) and 1309.5 pg/ml, the TNF-alpha conc/live cell (TNF-alpha; [14]) was 207.4 pg/10^5 and 252.1 pg/10^5 and 207.9 pg/10^5 and the “TNF-alpha Concentration” value (TNF-alpha; [5]) was 1269.7 pg/mL. The TNF-alpha conc/live cell (TNF-alpha; [5]) was 223.0 pg/10^5, the “TNF-alpha Concentration” value (TNF-alpha; [15]) was 1273.7 pg/mL and 1276.6 pg/mL and 1258.7 pg/mL and the TNF-alpha conc/live cell (TNF-alpha; [15]) was 193.0 pg/10^5 and 255.3 pg/10^5 and 220.8 pg/10^5. For the same compound, the “TNF-alpha Concentration” value (TNF-alpha; [7]) was 1256.8 pg/mL, the TNF-alpha conc/live cell (TNF-alpha; [7]) was 250.5 pg/10^5 and the “TNF-alpha Concentration” value (TNF-alpha; [16]) was 1282.6 pg/mL and 1208.1 pg/mL and 1279.6 pg/mL. The TNF-alpha conc/live cell (TNF-alpha; [16]) was 233.2 pg/10^5 and 251.7 pg/10^5 and 266.6 pg/10^5, the “TNF-alpha Concentration” value (TNF-alpha; [9]) was 1330.4 pg/mL and the TNF-alpha conc/live cell (TNF-alpha; [9]) was 253.3 pg/10^5. The “TNF-alpha Concentration” value (TNF-alpha; [17]) was 1399.2 pg/mL and 1255.8 pg/mL and 1336.4 pg/mL, the TNF-alpha conc/live cell (TNF-alpha; [17]) was 259.1 pg/10^5 and 216.5 pg/10^5 and 284.3 pg/10^5 and the “TNF-alpha Concentration” value (TNF-alpha; [11]) was 968.4 pg/mL. For the same compound, the TNF-alpha conc/live cell (TNF-alpha; [11]) was 159.6 pg/10^5, the “TNF-alpha Concentration” value (TNF-alpha; [18]) was 985.6 pg/mL and 960.5 pg/mL and 959.0 pg/mL and the TNF-alpha conc/live cell (TNF-alpha; [18]) was 161.6 pg/10^5 and 157.5 pg/10^5 and 159.8 pg/10^5.
